According to PMC10850145, “Hormonal steroids induce multidrug resistance and stress response genes in Neisseria gonorrhoeae by binding to MtrR” (Nature Communications, 2024):
Several values for one entry are separate records, joined by “and”; a condition that tells them apart may be missing. Equal values may be shown once. Entries after “also recorded” stand apart in the source; their conditions may differ. Read-outs that look alike come from different tables or passages of the source.

Tests used:
[1] = system: gonococcal strain FA19; experiment: MIC of steroidal hormones on GC agar, strain FA19; format: cell-based; details: Neisseria gonorrhoeae, strain FA19, GC agar, read-out: MIC
Experimental: (§1) To determine the minimal inhibitory concentrations (MICs) by the steroidal hormones and their effect on antimicrobial susceptibility, 5 x 10^5 CFU and 1:5 serial dilutions of gonococcal strains were spotted on GC agar plates containing different concentrations of antibiotics and/or hormones as indicated. Antimicrobial susceptibility was assessed after 24 h incubation.
(§2) Table S1. Steroidal hormones are substrates of the MtrCDE efflux pump
(§3) Progesterone Testosterone
(§4) *Minimal inhibition concentration is defined by the lowest concentration at which visible growth is […]

[2] = system: FA19 mtrD::kan (KH14); experiment: MIC of steroidal hormones on GC agar, FA19 mtrD::kan (KH14); format: cell-based, Neisseria gonorrhoeae
Experimental: as §1, §2, §3, §4

[3] = system: rpoH-lacZ expression; format: cell-based, Neisseria gonorrhoeae; details: for Miller units, single well: individual replicate; for Miller units, Mean: mean of 4 wells; for Miller units / β-galactosidase activity (Miller units): rpoH-lacZ, single replicate
[4] = system: N. gonorrhoeae; design: method as in PMID 816438; details: listed as PTR; cited from earlier work
[5] = biological target: T1, MtrR D171A (Neisseria gonorrhoeae, UniProt P39897, D171A); experiment: biochemical; format: binding
T1 construct: Hexa-histidine tag with TEV protease cleavage site (N, cleaved yes); made in house; host or cells: E. coli Rosetta Gami B(DE3) pLysS

[6] = biological target: T2, MtrR binding to mtrCDE operator (21mer) (Neisseria gonorrhoeae, UniProt P39897); experiment: Fluorescence polarization based DNA binding assay, mtrCDE operator; details: mtrCDE 21mer + 125 µM steroid
T2 construct: Hexa-histidine tag with TEV protease cleavage site (N, cleaved yes); made in house; host or cells: E. coli Rosetta Gami B(DE3) pLysS
Experimental: Fluorescence polarization based-DNA binding data were collected using a Panvera Beacon 2000 fluorescence polarization system (Invitrogen) and analyzed with Prism (Graphpad Software 9, 10). Purified MtrR was buffer exchanged into “DNA” binding buffer (150 mM NaCl, 20 mM Tris-HCl pH 7.5, 2.5% glycerol, 1 mM TCEP). […] The reported oligoduplexes containing the rpoH and mtrCDE binding site differ in lengths, 27mer and 21mer, respectively[17],[21]. […] BSA and dI-dC are included as carriers and to control for nonspecific DNA binding. Samples were excited at 490 nm and polarized emissions measured at 530 nm. Controls were run with no protein (DNA ± methanol, hormonal steroids) to ensure that millipolarization values were not affected by experimental conditions alone. The binding affinity of protein for DNA was determined using the following equation: P = Pf + (Pb – Pf) [M] / (Kd + [M]) where P is the measured polarization, Pf is the polarization of free DNA, Pb is the polarization of the completely bound DNA, Kd is the equilibrium dissociation constant, and M is the concentration of protein. Pb and Kd were determined by nonlinear least-squares analysis. At least three independent experimental measurements were averaged for each reported binding constant.

[7] = biological target: T3, MtrR R176E (Neisseria gonorrhoeae, UniProt P39897, R176E); experiment: biochemical; format: binding
T3 construct: Hexa-histidine tag with TEV protease cleavage site (N, cleaved yes); made in house; host or cells: E. coli Rosetta Gami B(DE3) pLysS

[8] = 6.25 µM hormone, plate columns 1-6 (WT)
[9] = 6.25 µM hormone, plate columns 7-12 (second strain, not WT)
[10] = 12.5 µM hormone, plate columns 1-6 (WT)
[11] = 12.5 µM hormone, plate columns 7-12 (second strain, not WT)
[12] = 25 µM hormone, plate columns 1-6 (WT)
[13] = 25 µM hormone, plate columns 7-12 (second strain, not WT)
[14] = 50 µM hormone, plate columns 1-6 (WT)
[15] = 50 µM hormone, plate columns 7-12 (second strain, not WT)
[16] = ΔmtrR + mtrR D171A in trans, 6.25 µM hormone
[17] = ΔmtrR + mtrR D171A in trans, 12.5 µM hormone
[18] = ΔmtrR + mtrR D171A in trans, 25 µM hormone
[19] = ΔmtrR + mtrR D171A in trans, 50 µM hormone

T2 sequence (P39897 whole entry): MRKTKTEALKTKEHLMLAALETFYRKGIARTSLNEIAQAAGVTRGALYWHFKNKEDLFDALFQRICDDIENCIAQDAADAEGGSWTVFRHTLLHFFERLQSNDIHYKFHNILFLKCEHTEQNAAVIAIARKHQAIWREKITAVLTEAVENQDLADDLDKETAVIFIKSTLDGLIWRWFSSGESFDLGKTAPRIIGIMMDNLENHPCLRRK
T3 sequence (P39897 whole entry R176E): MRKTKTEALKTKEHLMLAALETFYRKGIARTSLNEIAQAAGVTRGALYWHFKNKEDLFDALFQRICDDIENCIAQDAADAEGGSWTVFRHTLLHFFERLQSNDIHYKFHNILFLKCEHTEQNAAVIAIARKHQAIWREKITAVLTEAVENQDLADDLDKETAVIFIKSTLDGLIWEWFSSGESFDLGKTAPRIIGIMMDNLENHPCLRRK
T1 sequence (P39897 whole entry D171A): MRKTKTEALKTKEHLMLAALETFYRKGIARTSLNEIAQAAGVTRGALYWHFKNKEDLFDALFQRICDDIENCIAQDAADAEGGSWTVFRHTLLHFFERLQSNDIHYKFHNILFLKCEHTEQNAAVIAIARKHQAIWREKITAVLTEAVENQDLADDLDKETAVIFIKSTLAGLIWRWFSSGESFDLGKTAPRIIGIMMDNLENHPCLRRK

CC(=O)[C@H]1CC[C@H]2[C@@H]3CCC4=CC(=O)CC[C@]4(C)[C@H]3CC[C@]12C [Progesterone, progesterone]
MIC ([1]; 24 h): 127 µM
MIC [1]: 40 µg/mL
MIC ([2]; Neisseria gonorrhoeae): 20 µg/mL and 64 µM
effect of mtrD deletion on MIC ([2]; vs FA19): lowered
Miller units, single well [3, 8]: 42 Miller units and 34 Miller units and 33 Miller units
Miller units, Mean [3, 8]: 35 Miller units
Miller units, single well [3, 9]: 87 Miller units and 84 Miller units and 94 Miller units and 85 Miller units
Miller units, Mean [3, 9]: 87 Miller units
Miller units, single well [3, 10]: 35 Miller units and 36 Miller units and 31 Miller units and 38 Miller units
Miller units, Mean [3, 10]: 35 Miller units
Miller units, single well [3, 11]: 87 Miller units and 78 Miller units and 71 Miller units and 77 Miller units
Miller units, Mean [3, 11]: 78 Miller units
Miller units, single well [3, 12]: 60 Miller units and 61 Miller units and 39 Miller units and 59 Miller units
Miller units, Mean [3, 12]: 55 Miller units
Miller units, single well [3, 13]: 95 Miller units and 81 Miller units and 89 Miller units and 80 Miller units
Miller units, Mean [3, 13]: 86 Miller units
Miller units, single well [3, 14]: 66 Miller units and 65 Miller units and 44 Miller units
Miller units, Mean [3, 14]: 60 Miller units
Miller units, single well [3, 15]: 64 Miller units and 60 Miller units and 72 Miller units and 71 Miller units
Miller units, Mean [3, 15]: 67 Miller units
induction of rpoH expression ([3]; complemented (MtrR+) strains, increasing hormone): could be induced
induction of rpoH expression ([3]; loss of MtrR or MtrR-D171A strain): abrogated
Miller units [3, 16]: 94 Miller units
β-galactosidase activity (Miller units) [3, 16]: 87 Miller units and 84 Miller units and 85 Miller units
Miller units [3, 17]: 71 Miller units
β-galactosidase activity (Miller units) [3, 17]: 87 Miller units and 78 Miller units and 77 Miller units
Miller units [3, 18]: 89 Miller units
β-galactosidase activity (Miller units) [3, 18]: 95 Miller units and 81 Miller units and 80 Miller units
Miller units [3, 19]: 72 Miller units
β-galactosidase activity (Miller units) [3, 19]: 64 Miller units and 60 Miller units and 71 Miller units
β-galactosidase activity (Miller units) ([3]; ΔmtrR + mtrR WT in trans, 6.25 µM hormone): 42 Miller units and 34 Miller units and 33 Miller units
β-galactosidase activity (Miller units) ([3]; ΔmtrR + mtrR WT in trans, 12.5 µM hormone): 35 Miller units and 36 Miller units and 31 Miller units and 38 Miller units
β-galactosidase activity (Miller units) ([3]; ΔmtrR + mtrR WT in trans, 25 µM hormone): 60 Miller units and 61 Miller units and 39 Miller units and 59 Miller units
β-galactosidase activity (Miller units) ([3]; ΔmtrR + mtrR WT in trans, 50 µM hormone): 66 Miller units and 65 Miller units and 44 Miller units
β-galactosidase activity (Miller units) ([3]; ΔmtrR strain, 6.25 µM hormone): 315 Miller units and 172 Miller units and 146 Miller units
β-galactosidase activity (Miller units) ([3]; ΔmtrR strain, 12.5 µM hormone): 228 Miller units and 142 Miller units and 163 Miller units
β-galactosidase activity (Miller units) ([3]; ΔmtrR strain, 25 µM hormone): 253 Miller units and 160 Miller units and 118 Miller units
β-galactosidase activity (Miller units) ([3]; ΔmtrR strain, 50 µM hormone): 186 Miller units and 118 Miller units and 96 Miller units
Miller units ([3]; ΔmtrR, 6.25 µM hormone): 180 Miller units
Miller units ([3]; ΔmtrR, 12.5 µM hormone): 168 Miller units
Miller units ([3]; ΔmtrR, 25 µM hormone): 170 Miller units
Miller units ([3]; ΔmtrR, 50 µM hormone): 138 Miller units
β-galactosidase activity, rpoH-lacZ, Mean ([3]; strain WT (FA19/pLES94-rpoH), hormone 6.25 µM): 66 Miller units
β-galactosidase activity, rpoH-lacZ, Mean ([3]; strain WT (FA19/pLES94-rpoH), hormone 12.5 µM): 79 Miller units
β-galactosidase activity, rpoH-lacZ, Mean ([3]; strain WT (FA19/pLES94-rpoH), hormone 50 µM): 136 Miller units
activation of rpoH ([3]; strain producing MtrR R176E): almost no activation
β-galactosidase activity, rpoH-lacZ, Mean ([3]; strain ΔmtrR (FA19 ∆mtrR/pLES94-rpoH), hormone 6.25 µM): 203 Miller units
β-galactosidase activity, rpoH-lacZ, Mean ([3]; strain ΔmtrR (FA19 ∆mtrR/pLES94-rpoH), hormone 12.5 µM): 175 Miller units
β-galactosidase activity, rpoH-lacZ, Mean ([3]; strain ΔmtrR (FA19 ∆mtrR/pLES94-rpoH), hormone 25 µM): 175 Miller units
β-galactosidase activity, rpoH-lacZ, Mean ([3]; strain ΔmtrR (FA19 ∆mtrR/pLES94-rpoH), hormone 50 µM): 134 Miller units
β-galactosidase activity, rpoH-lacZ, Mean ([3]; strain ΔmtrR + mtrR D171A (pGCC3-mtrR D171A), hormone 6.25 µM): 87 Miller units
β-galactosidase activity, rpoH-lacZ, Mean ([3]; strain ΔmtrR + mtrR D171A (pGCC3-mtrR D171A), hormone 12.5 µM): 78 Miller units
β-galactosidase activity, rpoH-lacZ, Mean ([3]; strain ΔmtrR + mtrR D171A (pGCC3-mtrR D171A), hormone 25 µM): 86 Miller units
β-galactosidase activity, rpoH-lacZ, Mean ([3]; strain ΔmtrR + mtrR D171A (pGCC3-mtrR D171A), hormone 50 µM): 67 Miller units
β-galactosidase activity, rpoH-lacZ, Mean ([3]; strain ΔmtrR + mtrR WT (pGCC3-mtrR), hormone 6.25 µM): 35 Miller units
β-galactosidase activity, rpoH-lacZ, Mean ([3]; strain ΔmtrR + mtrR WT (pGCC3-mtrR), hormone 12.5 µM): 35 Miller units
β-galactosidase activity, rpoH-lacZ, Mean ([3]; strain ΔmtrR + mtrR WT (pGCC3-mtrR), hormone 25 µM): 55 Miller units
β-galactosidase activity, rpoH-lacZ, Mean ([3]; strain ΔmtrR + mtrR WT (pGCC3-mtrR), hormone 50 µM): 60 Miller units
growth inhibition of N. gonorrhoeae [4]: arrest N. gonorrhoeae growth; also recorded: most effective in growth inhibition
Kd [5]: 8.36 ± 2.5 µM
fluorescence polarization, MtrR titration ([6]; MtrR WT dimer 0.00 nM): 0.00 mP
fluorescence polarization, MtrR titration ([6]; MtrR WT dimer 3.83 nM): 3.14 mP
fluorescence polarization, MtrR titration ([6]; MtrR WT dimer 8.85 nM): 6.47 mP
fluorescence polarization, MtrR titration ([6]; MtrR WT dimer 11.32 nM): 7.37 mP and 3.83 mP and 6.23 mP
fluorescence polarization, MtrR titration ([6]; MtrR WT dimer 16.21 nM): 8.61 mP and 4.53 mP and 7.86 mP
fluorescence polarization, MtrR titration ([6]; MtrR WT dimer 35.50 nM): 11.01 mP and 7.99 mP and 10.09 mP
fluorescence polarization, MtrR titration ([6]; MtrR WT dimer 73.35 nM): 14.94 mP and 12.16 mP and 13.46 mP
fluorescence polarization, MtrR titration ([6]; MtrR WT dimer 110.67 nM): 19.14 mP and 15.56 mP and 17.23 mP
fluorescence polarization, MtrR titration ([6]; MtrR WT dimer 147.65 nM): 23.64 mP and 19.79 mP and 21.69 mP
fluorescence polarization, MtrR titration ([6]; MtrR WT dimer 220.59 nM): 29.74 mP and 25.09 mP and 27.23 mP
fluorescence polarization, MtrR titration ([6]; MtrR WT dimer 292.55 nM): 32.91 mP and 28.39 mP and 31.63 mP
fluorescence polarization, MtrR titration ([6]; MtrR WT dimer 363.86 nM): 35.71 mP and 31.19 mP and 34.99 mP
fluorescence polarization, MtrR titration ([6]; MtrR WT dimer 434.54 nM): 39.37 mP and 32.93 mP and 37.49 mP
fluorescence polarization, MtrR titration ([6]; MtrR WT dimer 504.61 nM): 40.97 mP and 36.33 mP and 40.13 mP
fluorescence polarization, MtrR titration ([6]; MtrR WT dimer 574.07 nM): 43.64 mP and 38.96 mP and 42.59 mP
fluorescence polarization, MtrR titration ([6]; MtrR WT dimer 711.46 nM): 46.37 mP and 42.63 mP and 45.23 mP
fluorescence polarization, MtrR titration ([6]; MtrR WT dimer 848.00 nM): 49.37 mP and 45.06 mP and 48.53 mP
Kd [7]: 8.43 ± 8.3 µM
